Seven compounds from patent publication US20110182973A1, “POLYMERASE INHIBITORS AND THE USE THEREOF FOR THE TREATMENT OF TUMORS” (FREIE UNIVERSITAET BERLIN, priority 2007, published 2011) can be followed below.

“Also recorded” adds a separate entry of the source.

Data set [1] can be described thus: MTT test (viability) on HaCaT keratinocyte cell line. It counts as cell-based. The conditions noted are these: human, 10^−4 M, read-out: Max. inhibition (%) (maximum decrease in viability).
Data set [2] is described as follows: MTT test (viability) on primary keratinocytes (NHK). It is filed as cell-based. The conditions noted are these: human, primary keratinocytes (NHK); MTT test, NHK, 10^−4 M; read-out: Max. inhibition (%) (maximum decrease in viability).
The test system of a further data set is primary keratinocytes. The data set is described as above. It counts as cell-based. The note with it: for inhibition at 100 µM / IC50: Keratinocyte; for inhibition at 100 µM: read-out: max. inhibition; for IC50: 48 h stimulation, read-out: −lg IC50 [M] ± SEM (converted).
The nature of data set [3]: MTT test (viability) on colon carcinoma line HT-29. It counts as cell-based. The note with it: Hat 29, 10^−4 M.
The next data set concerns MCF-7. As to the kind of experiment: MTT test (viability) on breast cancer cell line MCF-7. It is filed as cell-based. The conditions noted are these: Homo sapiens, MCF7, MCF-7, 10^−4 M, read-out: Max. inhibition (%) (maximum decrease in viability).
In the next data set the test system is SCC-25 cells. Briefly: MTT test (viability) on SCC-25 tumor cells. It counts as cell-based. The conditions noted are these: for inhibition at 100 µM / IC50 / cytotoxicity at 100 µM: Homo sapiens; for inhibition at 100 µM: read-out: max. inhibition; for IC50: read-out: −lg IC50 [M] ± SEM (converted); for cytotoxicity at 100 µM: read-out: Max. inhibition (%) (maximum decrease in viability).

Data set [4] is described as follows: MTT test (viability) on dermal fibroblasts. It counts as cell-based. The note with it: Fibrob., 10^−4 M, read-out: Max. inhibition (%) (maximum decrease in viability).
The nature of another data set: logP values. It counts as physicochemical.
The mark [5] stands for this setting: MTT test 48 h, primary keratinocytes, inhibitionmax = 100 − E, E = activity at 10^−4 M in %.
The mark [6] stands for this setting: MTT test, primary keratinocytes.
The mark [7] stands for this setting: MTT test 48 h, SCC-25 cells, inhibitionmax = 100 − E, E = activity at 10^−4 M in %.
Where [8] appears, read: MTT test, 48 h stimulation, SCC-25 cells.

Regarding `C[C@@]1(CO)[C@H](O)CC[C@@]2(C)[C@H]1CC[C@H]1C[C@@H]3C[C@@]12CC[C@]3(O)CO` [Aphidicolin], the cytotoxicity in data set [1] is 86%; in data set [2], 44%; in data set [4], 54%. Also, the inhibition at 100 µM in the data set with primary keratinocytes (setting [5]) amounted to 46%; with SCC-25 cells (setting [7]), 66%. For the same compound, the half-inhibitory concentration (IC50) in the data set on primary keratinocytes (setting [6]) is 5.62e-09 M; with SCC-25 cells (setting [8]) it was 5.13e-07 M. Moreover, the “Max. inhibition (%) (maximum decrease in viability)” value in data set [3] is listed as 70%. The cytotoxicity at 100 µM in the data set on MCF-7 is 61%; in the data set with SCC-25 cells (MTT test, SCC-25, 10^−4 M), 62%.

Turning to `O=C(O)P(=O)(O)O` [Foscamet], the max. inhibition entry is on record as “n.d. (−13%)” with primary keratinocytes (setting [5]) and 9% with SCC-25 cells (setting [7]). Moreover, the “Max. inhibition (%) (maximum decrease in viability)” value came to 0% in the data set with primary keratinocytes (MTT test, NHK, 10^−4 M) and 9% with SCC-25 cells (MTT test, SCC-25, 10^−4 M). Also, the pIC50 in the data set with SCC-25 cells (setting [8]) was 5.87 ± 0.24.

For `Cc1cn([C@H]2CC(=NO)[C@@H](CO)O2)c(=O)[nH]c1=O` [HM-1 oxime, 3′-deoxy-3′-hydroxyliminothymidine], the cytotoxicity in data set [1] was 20%; in data set [2] it was 3%. Also, the inhibition at 100 µM was determined as 7% with primary keratinocytes (setting [5]) and 36% in the data set with SCC-25 cells (setting [7]). The IC50 was 3.09e-08 M with primary keratinocytes (setting [6]) and 3.72e-08 M with SCC-25 cells (setting [8]). In the data set on SCC-25 cells (MTT test, SCC-25, 10^−4 M), the cytotoxicity at 100 µM stood at 30%.

As for `Cc1cn([C@H]2CC(=O)[C@@H](CO)O2)c(=O)[nH]c1=O` [HM-1, 3′-Deoxy-3′-oxothymidine], the cytotoxicity was 16% in data set [1] and 23% in data set [2]. Besides, the inhibition at 100 µM in the data set on primary keratinocytes (setting [5]) came out at 24%; in the data set with SCC-25 cells (setting [7]) it was 47%. The logP in “logP values” was -1.13. Further, the IC50 with SCC-25 cells (setting [8]) is 4.47e-05 M. In the data set with SCC-25 cells (MTT test, SCC-25, 10^−4 M), the cytotoxicity at 100 µM was 47%. Besides, the “cytotoxic / antiproliferative effect on tumor cells (SCC-25), in words” value with SCC-25 cells (SCC-25 cells, FIG. 1, FIG. 2, Table 1) was “strong cytotoxic effect; also recorded: stronger than that of the two comparative substances 5-fluorouracil and aphidicolin”. In addition, the “selectivity: effect on SCC-25 tumor cells compared with keratinocytes, in words” value in the data set with SCC-25 cells (SCC-25 vs primary keratinocytes (and HaCaT)) is listed as “stronger than that in primary keratinocytes”.

As to `CCOC(=O)O[C@]1(C(=O)COC(=O)CC)CC[C@H]2[C@@H]3CCC4=CC(=O)C=C[C@]4(C)[C@H]3[C@@H](O)C[C@@]21C` [Prednicarbate], the logP in the data set “logP values” is 3.82.

`C[C@]12C=CC(=O)C=C1CC[C@@H]1[C@@H]2[C@@H](O)C[C@@]2(C)[C@H]1CC[C@]2(O)C(=O)CO` [Prednisolone] gave a logP in “logP values” of 1.69.

Consider `O=c1[nH]cc(F)c(=O)[nH]1` [Substance 5-FU, 5-fluorouracil], for which the cytotoxicity in data set [1] stood at 80%; in data set [2] it was 41%; in data set [4], 88%. Besides, the results for the inhibition at 100 µM with primary keratinocytes (setting [5]) and in the data set with SCC-25 cells (setting [7]) were 44% and 42%, respectively. In addition, the figures for the IC50 in the data set on primary keratinocytes (setting [6]) and in the data set with SCC-25 cells (setting [8]) were 1.05e-05 M and 1.05e-06 M, respectively. For the same compound, the “Max. inhibition (%) (maximum decrease in viability)” value in data set [3] amounted to 66%. Moreover, the cytotoxicity at 100 µM with MCF-7 stood at 71%; in the data set with SCC-25 cells (MTT test, SCC-25, 10^−4 M), 42%.
